pIC50: −log10 of the molar value.

In this assay the target is Src Kinase (p60c-Src) (Homo sapiens, UniProt P12931). Briefly: General Assay Method for Src-Kinase (DELFIA time-resolved fluorometry, poly(Glu,Tyr) substrate). As to conditions: Src kinase 1:8000, 100 μM ATP, 15 min. at room temp; read-out: Activity (uMol. Delfia assay. IC50). It is filed as biochemical. On the procedure: The compounds 1-25 above were assayed for activity with respect to the Src protein tyrosine kinase by the fluorometric method described in Measurement of the Protein Tyrosine Kinase Activity of c-Src Using Time-Resolved Fluorometry of Europium Chelates, Braunwalder, A. F. et al., Analytical Biochemistry 238, 159-164 (1996), the disclosure of which is incorporated herein by reference, using the materials and procedures further specified below.
Chain of Src Kinase (p60c-Src) (P12931 whole entry): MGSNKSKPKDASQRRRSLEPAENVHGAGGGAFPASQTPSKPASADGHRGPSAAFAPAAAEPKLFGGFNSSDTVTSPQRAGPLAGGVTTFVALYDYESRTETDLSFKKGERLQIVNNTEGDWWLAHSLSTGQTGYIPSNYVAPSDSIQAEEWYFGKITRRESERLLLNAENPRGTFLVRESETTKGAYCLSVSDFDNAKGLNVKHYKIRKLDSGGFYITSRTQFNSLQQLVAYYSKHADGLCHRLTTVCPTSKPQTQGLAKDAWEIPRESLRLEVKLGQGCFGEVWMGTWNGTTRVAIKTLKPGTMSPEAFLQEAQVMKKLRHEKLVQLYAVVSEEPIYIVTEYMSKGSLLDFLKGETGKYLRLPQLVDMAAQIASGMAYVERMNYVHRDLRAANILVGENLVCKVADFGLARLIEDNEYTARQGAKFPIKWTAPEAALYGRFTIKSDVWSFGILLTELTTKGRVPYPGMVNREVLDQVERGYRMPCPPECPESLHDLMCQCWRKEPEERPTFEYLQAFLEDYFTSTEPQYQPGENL
General Assay Method for Src-Kinase:
Costar 384 Clear, non-treated, high-binding plates
Sigma poly(Glu, Tyr) 4:1, Ave. MW 35,000
Sigma ATP (1.5 mM Stock Soln. in H2O)
MES Buffer: 30 mM MES (pH 6.8)
MBI Buffer: (MES+0.4 mg/ml BSA+0.003% IGEPAL)
Wallac Eu-labelled anti-phosphotyrosine Antibody (CR04-100)
Antibody Dilution Buffer: (MES+3%BSA)
DELFIA® Wash Solution (TTBS):
DELFIA Enhancement Solution
The plates were coated with 0.1 mg/ml poly(Glu, Tyr) in Coating Solution, 35 μl/well. It was let stand overnight at room temp. The plates were then washed 3 times with MES (100 μl/wash).
The reaction was stopped by aspiration, and then washed 3 times with MES (100 μl/wash). 20 μl 0.4 ng/μl of antibody in Antibody Dilution Buffer (final=8 ng Ab/well) was added and then incubated for 30 min. at RT. The antibody solution was removed by aspiration and then washed 3 times with 1X DELFIA Wash Solution. 20 μl DELFIA Enhancement Solution was added and the value was read.
As for `N=C(N)c1ccc(C(=O)N(Cc2cccc(Oc3ccccc3)c2)C(Cc2ccc(-c3ccccc3)cc2)C(=O)NCC(N)=O)cc1` (stereo not shown) [Example 1, N-[4-Amidinobenzoyl]-N-[3-phenoxybenzyl]-3-(4-biphenyl)-alanyl-glycyl-amide], the pIC50 was 4.66.

Consider `CC(C)(C)c1ccc(Oc2cccc(CN(C(=O)c3cccc(C(=N)N)c3)C(CC3CCCCC3)C(=O)NCC(N)=O)c2)cc1` (stereo not shown) [Example 2, 3-amidinobenzoyl-(3-(4-tert-butylphenoxy)benzyl)-cyclohexylylalanyl-glycyl-amide], for which the pIC50 is 4.64.

As to `CC(C)(C)c1ccc(Oc2cccc(CN(C(=O)c3cccc(C(=N)N)c3)C(Cc3ccc(N)cc3)C(=O)NCC(N)=O)c2)cc1` (stereo not shown) [Example 3, N-[3-Amidinobenzoyl]-N-[3-(4-tert-butylphenoxy)benzyl]-4-aminophenylalanyl-glycyl-amide], the pIC50 is 4.35.

As to `CC(C)(C)c1ccc(Oc2cccc(CN(C(=O)c3cccc(C(=N)N)c3)C(Cc3cccc4ccccc34)C(=O)NCC(N)=O)c2)cc1` (stereo not shown) [Example 4, N-[3-Amidinobenzoyl]-N-[3-(4-tert-butylphenoxy)benzyl]-1-naphthylalanyl-glycyl-amide], the pIC50 was 4.74.

Regarding `CC(C)(C)c1ccc(Oc2cccc(CN(C(=O)c3cccc(C(=N)N)c3)C(CCCNC(=N)N)C(=O)NCC(N)=O)c2)cc1` (stereo not shown) [Example 5, N-[3-Amidinobenzoyl]-N-[3-(4-tert-butylphenoxy)benzyl]-arginyl-glycyl-amide], the pIC50 was 4.90.

As to `CC(C)(C)c1ccc(Oc2cccc(CN(C(=O)c3ccc(C(=N)N)cc3)C(Cc3c[nH]c4ccccc34)C(=O)NCC(N)=O)c2)cc1` (stereo not shown) [Example 6, 4-amidinobenzoyl-(3-(4-tert-butylphenoxy)phenoxybenzyl)-tryptanyl-glycyl-amide], the pIC50 is 4.85.

Regarding `N=C(N)c1ccc(C(=O)N(Cc2ccc(-c3ccccc3)cc2)C(Cc2ccc(-c3ccccc3)cc2)C(=O)NCC(N)=O)cc1` (stereo not shown) [Example 7, N-[4-Amidinobenzoyl]-N-[4-biphenylmethyl]-3-(4-biphenyl)alanyl-glycyl-amide], the negative-log IC50 (pIC50) is 4.89.

Regarding `NC(=O)C(Cc1ccc2ccccc2c1)NC(=O)Nc1ccc(N2CCN(C3CCCCC3)CC2)c(NC(=O)CCCc2ccccc2)c1` (stereo not shown) [Example 8, 4-Cyclohexyl-1-{[2-(4-phenylbutanoyl)amino]-4-[1-aminocarbonyl-2-(2-naphthyl)ethylamino]carbonylaminophenyl}piperazine], the pIC50 is 5.07.

As for `NC(=O)C(Cc1ccc2ccccc2c1)NC(=O)Nc1ccc(N2CCN(C3CCCCC3)CC2)c(NC(=O)/C=C/c2ccccc2)c1` (stereo not shown) [Example 9, 4-Cyclohexyl-1-{[2-cinnamoylamino]-4-[1-aminocarbonyl-2-(2-naphthyl)ethylamino]carbonylaminophenyl}piperazine], the pIC50 is 4.77.

Regarding `NC(=O)C(CCc1ccccc1)NC(=O)Nc1ccc(N2CCN(C3CCCCC3)CC2)c(NC(=O)/C=C/c2ccccc2)c1` (stereo not shown) [Example 10, 4-Cyclohexyl-1-{[2-cinnamoylamino]-4-[(1-aminocarbonyl-3-phenyl)propylamino]carbonylaminophenyl}piperazine], the negative-log IC50 (pIC50) is 4.81.

Turning to `NC(=O)C(CCc1ccccc1)NC(=O)Nc1ccc(N2CCN(C3CCCCC3)CC2)c(NC(=O)CCCc2ccccc2)c1` (stereo not shown) [Example 11, 4-Cyclohexyl-1-{[2-(4-phenylbutanoyl)amino]-4-[(1-aminocarbonyl-3-phenyl)propylamino]carbonylaminophenyl}piperazine], the negative-log IC50 (pIC50) was 4.96.

Turning to `NC(=O)C(CC1CCCCC1)NC(=O)Nc1ccc(N2CCN(C3CCCCC3)CC2)c(NC(=O)/C=C/c2ccccc2)c1` (stereo not shown) [Example 12, 4-Cyclohexyl-1-{[2-cinnamoylamino]-4-[(1-aminocarbonyl-2-cyclohexyl)ethylamino]carbonylaminophenyl}piperazine], the negative logarithm of the IC50 (pIC50) was 4.73.

Regarding `NC(=O)C(Cc1ccc2ccccc2c1)NC(=O)Nc1ccc(N2CCCN(C(=O)C3CCNCC3)CC2)c(NC(=O)CCCc2ccccc2)c1` (stereo not shown) [Example 13, 4-(Piperidin-4-yl)carbonyl-1-{[2-(4-phenylbutanoyl)amino]-4-[1-aminocarbonyl-2-(2-naphthyl)ethylamino]carbonylaminophenyl}homopiperazine], the pIC50 is 4.89.

Turning to `NC(=O)C(Cc1ccc2ccccc2c1)NC(=O)Nc1ccc(N2CCCN(C(=O)C3CCNCC3)CC2)c(NC(=O)c2cc3ccccc3o2)c1` (stereo not shown) [Example 14, 4-(Piperidin-4-yl)carbonyl-1-{[2-(2-benzofuranoyl)amino]-4-[1-aminocarbonyl-2-(2-naphthyl)ethylamino]carbonylaminophenyl}homopiperazine], the pIC50 was 5.56.

As for `NC(=O)C(CC1CCCCC1)NC(=O)Nc1ccc(N2CCCN(C(=O)C3CCNCC3)CC2)c(NC(=O)c2cc3ccccc3o2)c1` (stereo not shown) [Example 15, 4-(Piperidin-4-yl)carbonyl-1-{[2-(2-benzofuranoyl)amino]-4-[1-aminocarbonyl-2-cyclohexylethylamino]carbonylaminophenyl}homopiperazine], the pIC50 was 5.19.

Turning to `NC(=O)C1CCC(CNC(=O)Nc2ccc(N3CCCN(C(=O)C4CCNCC4)CC3)c(NC(=O)c3cc4ccccc4o3)c2)CC1` (stereo not shown) [Example 16], the pIC50 was 4.44.

As for `CNCC(=O)N1CCCN(c2ccc(NC(=O)NCC3CCC(C(N)=O)CC3)cc2NC(=O)c2cc3ccccc3o2)CC1` (stereo not shown) [Example 17], the pIC50 is 4.43.

Regarding `NC(=O)C1CCC(CNC(=O)Nc2ccc(N3CCCN(C(=O)C4CCCN4)CC3)c(NC(=O)c3cc4ccccc4o3)c2)CC1` (stereo not shown) [Example 18, 4-(Pyrrolidin-2-yl)carbonyl-1-[2-[(2-benzo-furanoyl)amino]-4-[[(4-aminocarbonyl)cyclohexyl-methyl-amino]carbonylamino]phenyl] homopiperazine], the pIC50 was 4.72.

In the case of `NC(=O)C1CCC(CNC(=O)Nc2ccc(N3CCC(N4CCCCC4)CC3)c(NC(=O)c3cc4ccccc4o3)c2)CC1` (stereo not shown) [Example 19], the pIC50 is 4.66.

As for `NC(=O)C(CC1CCCCC1)NC(=O)Nc1ccc(N2CCCN(C(=O)C3CCNCC3)CC2)c(NC(=O)CCCc2ccccc2)c1` (stereo not shown) [Example 20], the negative logarithm of the IC50 (pIC50) was 4.55.

As to `NC(=O)C(CCc1ccccc1)NC(=O)Nc1ccc(N2CCCN(C(=O)C3CCNCC3)CC2)c(NC(=O)CCCc2ccccc2)c1` (stereo not shown) [Example 21], the pIC50 was 4.66.

In the case of `CC(C)C(NS(=O)(=O)c1cc(NC(=O)C2CCCN2)ccc1N1CCC(Cc2ccccc2)CC1)C(N)=O` (stereo not shown) [Example 22, N-(1-Aminocarbonyl-2-methylpropyl)-2-[(4-phenylmethyl)piperidin-1-yl]-5-[(2-pyrrolidinocarbonyl)amino]phenylsulfonamide], the pIC50 was 4.85.

Turning to `CC(C)C(NS(=O)(=O)c1cc(NC(=O)C2CCNCC2)ccc1N1CCC(Cc2ccccc2)CC1)C(N)=O` (stereo not shown) [Example 23], the negative-log IC50 (pIC50) is 4.92.

On to `CC(C)C(NS(=O)(=O)c1cc(NC(=O)/C=C/c2ccccc2)ccc1N1CCN(C2CCCCC2)CC1)C(N)=O` (stereo not shown) [Example 24, 1-[2-[N-(2-Aminocarbonyl-3-methylbutyl)sulfonamido]-5-[2-cinnamoylamino]]phenyl-4-cyclohexylpiperazine], for which the negative-log IC50 (pIC50) is 4.38.

As for `NC(=O)C1CCC(CNS(=O)(=O)c2cc(NC(=O)C3CCCN3)ccc2N2CCC(Cc3ccccc3)CC2)CC1` (stereo not shown) [Example 25, N-[[(4-Aminocarbonyl)cyclohexylmethyl]amino]-[2-[(4-phenylmethyl)piperidin-1-yl]-5-[(2-pyrrolidinocarbonyl)-amino]phenyl]sulfonamide], the negative-log IC50 (pIC50) is 4.56.

Source of the values: patent US20030045480A1, “Method of treating hyperresorptive bone disorders” (priority 2001, published 2003).
